Results from ChEMBL document CHEMBL1201862, “PubChem BioAssay data set” (2004).
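Dose response: 5 concentrations. Exposure: 48 h. Format: 96-well plates. Endpoint: linear interpolation; highest concentration if not reached. GI50 = concentration required for 50% inhibition of growth.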 Active and inactive are the calls of the source. Rule as the data show it: active = GI50 up to about 1.1 µM and inactive = higher.

Columns and labels:
Assay in all cases: NCI-60 cell line screen, 48 h
DU-145 = system: DU-145
OVCAR-4 = system: OVCAR-4
A549 = system: A549
OVCAR-3 = system: OVCAR-3
OVCAR-8 = system: OVCAR-8
KM12 = system: KM12
RPMI-8226 = system: RPMI-8226
HCT-116 = system: HCT-116
SNB-75 = system: SNB-75
NCI-H226 = system: NCI-H226
COLO 205 = system: COLO 205
OVCAR-5 = system: OVCAR-5
SF-295 = system: SF-295
UACC-62 = system: UACC-62
BT-549 = system: BT-549
HL-60 = system: HL-60
MDA-MB-435 = system: MDA-MB-435
SK-MEL-28 = system: SK-MEL-28
A498 = system: A498
NCI-H23 = system: NCI-H23

Compound	GI50 (DU-145)	GI50 (OVCAR-4)	GI50 (A549)	GI50 (OVCAR-3)	GI50 (OVCAR-8)	GI50 (KM12)	GI50 (RPMI-8226)	GI50 (HCT-116)	GI50 (SNB-75)	GI50 (NCI-H226)	GI50 (COLO 205)	GI50 (OVCAR-5)	GI50 (SF-295)	GI50 (UACC-62)	GI50 (BT-549)	GI50 (HL-60)	GI50 (MDA-MB-435)	GI50 (SK-MEL-28)	GI50 (A498)	GI50 (NCI-H23)
Cc1cn(C2CC(SCCO)C(CO)O2)c(=O)[nH]c1=O (centres undefined)	> 100 µM (inactive)	> 100 µM (inactive)	> 100 µM (inactive)	> 100 µM (inactive)	> 100 µM (inactive)	> 100 µM (inactive)	> 100 µM (inactive)	> 100 µM (inactive)	> 100 µM (inactive)	> 100 µM (inactive)	> 100 µM (inactive)	> 100 µM (inactive)	> 100 µM (inactive)	> 100 µM (inactive)	> 100 µM (inactive)	> 100 µM (inactive)	> 100 µM (inactive)	> 100 µM (inactive)	> 100 µM (inactive)	> 100 µM (inactive)
CCC(C)SC1SCC2C(=O)N(C)C3(CC3C)C(=O)OCC(NC(=O)c3nc4ccccc4cc3O)C(=O)NC(C)C(=O)N(C)C1C(=O)N(C)C1(CC1C)C(=O)OCC(NC(=O)c1nc3ccccc3cc1O)C(=O)NC(C)C(=O)N2C (centres undefined)	0.000188 µM (active)	–	0.00015 µM (active)	–	9.1e-05 µM (active)	–	4.15e-05 µM (active)	–	2.93e-05 µM (active)	4.99e-05 µM (active)	5.01e-05 µM (active)	0.00018 µM (active)	9.91e-05 µM (active)	1.55e-05 µM (active)	4.35e-05 µM (active)	9.29e-05 µM (active)	4.97e-05 µM (active)	–	0.000102 µM (active)	3.25e-05 µM (active)
CCOC(=O)C(C(=O)OCC)=C1NC2(c3ccccc3Nc3ccc(C)cc32)C(C#N)S1 (centres undefined)	11.3 µM (inactive)	5.66 µM (inactive)	3.01 µM (inactive)	3.39 µM (inactive)	8.61 µM (inactive)	4.43 µM (inactive)	2.32 µM (inactive)	5.58 µM (inactive)	8.55 µM (inactive)	11.5 µM (inactive)	4.04 µM (inactive)	11.3 µM (inactive)	9.59 µM (inactive)	9.48 µM (inactive)	14 µM (inactive)	13.1 µM (inactive)	5.65 µM (inactive)	18.2 µM (inactive)	10.3 µM (inactive)	3.56 µM (inactive)
CCN(CC)CCNc1ccc([N+](=O)[O-])c2nc3ccc(OC)cc3c(N)c12	1.65 µM (inactive)	1.22 µM (inactive)	1.27 µM (inactive)	1.86 µM (inactive)	1.47 µM (inactive)	1.12 µM (inactive)	0.243 µM (active)	0.151 µM (active)	1.77 µM (inactive)	2.32 µM (inactive)	0.4 µM (active)	1.7 µM (inactive)	1.37 µM (inactive)	1.7 µM (inactive)	1.4 µM (inactive)	0.0826 µM (active)	1.45 µM (inactive)	1.65 µM (inactive)	1.5 µM (inactive)	1.64 µM (inactive)
COc1ccc2c(c1OC)C(C(Cl)(Cl)Cl)N1CCc3cc4c(cc3C1=C2)OCO4 (centres undefined)	16.3 µM (inactive)	5.93 µM (inactive)	35.6 µM (inactive)	7.43 µM (inactive)	8.11 µM (inactive)	7.6 µM (inactive)	2.08 µM (inactive)	10.6 µM (inactive)	46.5 µM (inactive)	10.9 µM (inactive)	5.45 µM (inactive)	72.6 µM (inactive)	9.31 µM (inactive)	11.8 µM (inactive)	1.03 µM (active)	15.2 µM (inactive)	11.1 µM (inactive)	12 µM (inactive)	67.6 µM (inactive)	12.9 µM (inactive)
CC(C)CCCC(C)[C@H]1CC[C@H]2n3c(nnc3-c3ccccc3)CCC[C@]12C (some centres undefined)	16.2 µM (inactive)	12.5 µM (inactive)	9.86 µM (inactive)	10.5 µM (inactive)	15.9 µM (inactive)	28.8 µM (inactive)	4.13 µM (inactive)	9.48 µM (inactive)	17.5 µM (inactive)	14.8 µM (inactive)	3.21 µM (inactive)	–	9.08 µM (inactive)	12.4 µM (inactive)	19.8 µM (inactive)	3.54 µM (inactive)	10.7 µM (inactive)	16.9 µM (inactive)	14 µM (inactive)	12.4 µM (inactive)
Nc1ncn(C2OC(COP(=O)(O)O)C(O)C2O)c(=O)n1 (centres undefined)	> 100 µM (inactive)	> 100 µM (inactive)	45.9 µM (inactive)	> 100 µM (inactive)	40.7 µM (inactive)	> 100 µM (inactive)	> 100 µM (inactive)	75.9 µM (inactive)	> 100 µM (inactive)	> 100 µM (inactive)	> 100 µM (inactive)	> 100 µM (inactive)	> 100 µM (inactive)	> 100 µM (inactive)	> 100 µM (inactive)	> 64.4 µM (inactive)	> 53.2 µM (inactive)	> 100 µM (inactive)	> 100 µM (inactive)	> 81.8 µM (inactive)
